Patent publication US20240043860A1, “NOVEL HYDROXYPHENYLPYRUVATE DIOXYGENASE POLYPEPTIDES AND METHODS OF USE THEREOF” (Syngenta Crop Protection AG, priority 2020, published 2024)
Where “and” joins values, the source holds several entries; their conditions need not be identical. Equal entries are not always repeated.

Legend:
wild-type tobacco plants = assay: spray test, herbicidal damage scoring; type: in vivo; conditions: Table 4.1, 7 days after treatment, 100=complete death, 0=no damage, one value per plant/event
Experimental: (§1) Once rooted, plantlets are transferred from agar and potted into 50% peat, 50% John Innes Soil No. 3 or, for example, MetroMix® 380 soil (Sun Gro Horticulture, Bellevue, WA) with slow-release fertilizer in 3 inch round or 4 inch square pots and left regularly watered to establish for 8-12d in the glass house. Glass house conditions are about 24-27° C. day; 18-21° C. night and approximately a 14h (or longer in UK summer) photoperiod.
(§2) About 20-30 TO events are produced for a number of HPPD variant genes.
(§3) Tables 4.1-4.9 show the herbicidal damage scoring on transgenic tobacco plants 7 days after treatment. A score of 100=complete death and 0=no damage observed.

[1] = test system: transgenic tobacco plants expressing mutant HPPD SEQ ID NO: 14; assay: spray test, herbicidal damage scoring; type: in vivo; conditions: for tolerance compared to SEQ ID 122 expressing plants: SEQ ID 14 plants, 800 g/ha Mesotrione, 400 g/ha Tembotrione or 400 g/ha Isoxaflutole (Table 3.2)
Experimental: (§4) Avena sativa HPPD or orthologues and variants thereof, for example SEQ IDs 1-63 and 122-127, were expressed in transgenic tobacco. DNA sequences that encode these polypeptides (optimized for tobacco or, optionally, codon optimized according to a target crop such as soybean) were prepared synthetically. Each sequence was designed to include a 5′ fusion with TMV omega 5′ leader sequence such that they are flanked at the 5′ end with XhoI and at the 3′ end with KpnI to facilitate direct cloning into a suitable binary vector for Agrobacterium-based plant transformation.
In one example, the TMV omega 5′ leader and a HPPD encoding gene of interest is excised using XhoI/KpnI and cloned into similarly digested binary vector pBIN 19 (Bevan, Nucl. Acids Res. (1984) behind a double enhanced 35S promoter ahead of a NOS 3′ transcription terminator and then transformed into E. coli DH5 alpha competent cells. DNA recovered from the E. coli is used to transform Agrobacterium tumefaciens LBA4404, and transformed bacteria are selected on media contain rifampicin and kanamycin. Tobacco tissue is subjected to Agrobacterium-mediated transformation using methods well described in the art or as described herein. For example, a master plate of Agrobacterium tumefaciens containing the HPPD expressing the binary vector is used to inoculate 10 ml LB (L broth) containing 100 mg/l Rifampicin plus 50 mg/l Kanamycin using a single bacterial colony. This is incubated overnight at 28° C. shaking at 200 rpm. This entire overnight culture is used to inoculate a 50 ml volume of LB containing the same antibiotics. Again this is cultured overnight at 28° C. shaking at 200 rpm. The Agrobacterium cells are pelleted by centrifuging at 3000 rpm for 15 minutes and then resuspended in MS (Murashige and Skoog) medium containing 30 g/l sucrose, pH 5.9 to an OD […]=0.6. This suspension is dispensed in 25 ml aliquots into petri dishes.
Once rooted, plantlets are transferred from agar and potted into 50% peat, 50% John Innes Soil No. 3 or, for example, MetroMix® 380 soil (Sun Gro Horticulture, Bellevue, WA) with slow-release fertilizer in 3 inch round or 4 inch square pots and left regularly watered to establish for 8-12d in the glass house. Glass house conditions are about 24-27° C. day; 18-21° C. night and approximately a 14h (or longer in UK summer) photoperiod. Humidity is adjusted to ˜65% and light levels used are up to 2000 umol/m^2 at bench level. Once new tissue emerged and plants reach the 2-4 leaf stage, some of the clones from each event are sprayed with an HPPD inhibitor of interest selected from the herbicides listed in reference to Example 1. […] For example Callisto® is mixed in water with 0.2-0.25% X-77 surfactant and sprayed from a boom on a suitable track sprayer moving at 2 mph in a DeVries spray chamber (Hollandale, MN) with the nozzle about 2 inches from the plant tops.
Plants are assessed for damage and scored at, for example, 7 and 14 days after treatment (DAT). About 20-30 TO events are produced for a number of HPPD variant genes.
Plants of events showing the least damage are grown to flowering, then bagged and allowed to self. […] Single copy events amongst the Ti plant lines are identified by their 3:1 segregation ratio (with respect to kanamycin and/or herbicide) and by quantitative RT-PCR. Seed from the thus selected Ti tobacco (var. Samsun) lines are sown in 3 inch diameter pots containing 50% peat and 50% John Innes Soil No. 3. After growth to the 3 leaf stage, plants are sprayed as described above in order to test for herbicide tolerance relative to like-treated non-transgenic tobacco plants, and also in comparison with like-treated Ti plants expressing the base HPPD SEQ IDs 122-125. HPPD expression levels were monitored by Western analysis. […]

[2] = test system: HPPD variant APESV V200 (SEQ ID NO: 6); assay: coupled HGO assay; type: biochemical, Apera spica-venti
Experimental: (§5) DNA sequences (SEQ ID NOs: 65-118, 128, 130, 131, and 133), synthesized for expression in E. coli, by GeneWiz (USA) to encode HPPD variants (SEQ ID NOs: 5-58, 122, 124, 125 and 127) derived from either Avena sativa (SEQ ID NOs: 122, 124), Alopecurus myosuroides (SEQ ID NO: 126) or Apera spica-venti (SEQ ID NOs: 123, 125) were transformed into E coli BL21 (DE3) (New England Biolabs) and grown in 0.5 ml Terrific broth +50 ug/ml Kanamycin media in a 96-deepwell block overnight (37° C., 900rpm). 25 ul of the overnight cultures were inoculated into fresh 96-deepwell block containing 1 ml Formedium Autoinduction Media (AIM). The AIM cultures were grown for 3h at 37° C. (900rpm) and then transferred to 20° C. overnight (900rpm) to allow protein expression. The overnight cultures were centrifuged and 500 ul of Cellytic B (Sigma Aldrich) was added to resuspend the cell pellets. The coupled HGO assay (Siehl et al, 2014) is used to generate IC50 values for the HPPD variants of interest.
(§6) E. coli BL21 (DE3) cells were transformed with a pET24a vector containing a C-terminally his-tagged Arabidopsis HGO gene, grown and induced overnight as described for the HPPD variants above. The cell pellet was resuspended in phosphate buffered saline at pH 7.4 containing 10% Glycerol, 1mm Tris[2-carboxyethyl] phosphine-HCl (TCEP) plus 30 mM Imidazole and lysed using lysozyme/benzonase. The extract was clarified by low speed centrifugation and purified in the same buffer down a 1 ml His Gravitrap column. The bound HGO was eluted in 0.25M imidazole and the fractions pooled and beaded into liquid nitrogen. All procedures apart from the centrifugation and beading steps were carried out under a nitrogen atmosphere.
(§7) The coupled HGO assay is carried out by adding 10 ul of HPPD extract to a 96-well plate and then adding 40 ul of reaction buffer (50 mM Bis Tris Propane, pH7.0, 25 mM sodium-L-ascorbate, 400μM mercaptoethanol, 50 μM Fe(II)SO4). The plates are left to incubate for 5 minutes on ice. […] 200 ul of HPP/HGO (197 μM hydroxyphenylpyruvic acid, 16 μl/ml Homogentisic Acid Oxidase in reaction buffer as described above) buffer is then added to the well and the reaction is regularly monitored (e.g. every 30 seconds-5 minutes) for absorbance at 330 nm for a given time period (e.g., for between 15-60 minutes). The data can then be used to calculate the IC50 value for each HPPD variant of interest.

[3] = test system: HPPD variant APESV V209 (SEQ ID NO: 18); assay: coupled HGO assay; type: biochemical, Apera spica-venti
Experimental: as §5, §6, §7

[4] = test system: HPPD variant ALOME V200 (SEQ ID NO: 7); assay: coupled HGO assay; type: biochemical, Alopecurus myosuroides
Experimental: as §5, §6, §7

[5] = test system: HPPD variant ALOME V209 (SEQ ID NO: 19); assay: coupled HGO assay; type: biochemical, Alopecurus myosuroides
Experimental: as §5, §6, §7

[6] = test system: HPPD variant ALOME V162 (SEQ ID NO: 126); assay: coupled HGO assay; type: biochemical, Alopecurus myosuroides
Experimental: as §5, §6, §7

[7] = test system: transgenic tobacco plants expressing mutant HPPD SEQ ID NO: 122; assay: spray test, herbicidal damage scoring; type: in vivo; conditions: Table 3.2; 14 days after treatment; best events, SEQ ID 122; 100=complete death, 0=no damage; one value per event
[8] = test system: transgenic tobacco plants expressing mutant HPPD SEQ ID NO: 124; assay: spray test, herbicidal damage scoring; type: in vivo; conditions: Table 4.2, 7 days after treatment, 100=complete death, 0=no damage, one value per event
Experimental: as §4, with “DNA” for “Avena sativa HPPD or orthologues and variants thereof, for example SEQ IDs 1-63 and 122-127, were expressed in transgenic tobacco. DNA”
(§8) For example, a master plate of Agrobacterium tumefaciens containing the HPPD expressing the binary vector is used to inoculate 10 ml LB (L broth) containing 100 mg/l Rifampicin plus 50 mg/l Kanamycin using a single bacterial colony. This is incubated overnight at 28° C. shaking at 200 rpm. This entire overnight culture is used to inoculate a 50 ml volume of LB containing the same antibiotics. Again this is cultured overnight at 28° C. shaking at 200 rpm. The Agrobacterium cells are pelleted by centrifuging at 3000 rpm for 15 minutes and then resuspended in MS (Murashige and Skoog) medium containing 30 g/l sucrose, pH 5.9 to an OD […]=0.6. This suspension is dispensed in 25 ml aliquots into petri dishes.
as §1, §2
(§9) Single copy events amongst the Ti plant lines are identified by their 3:1 segregation ratio (with respect to kanamycin and/or herbicide) and by quantitative RT-PCR. Seed from the thus selected Ti tobacco (var. Samsun) lines are sown in 3 inch diameter pots containing 50% peat and 50% John Innes Soil No. 3. […] HPPD expression levels were monitored by Western analysis.
as §3

[9] = test system: transgenic tobacco plants expressing mutant HPPD SEQ ID NO: 125; assay: spray test, herbicidal damage scoring; type: in vivo; conditions: Table 4.3, 7 days after treatment, 100=complete death, 0=no damage, one value per event
Experimental: as §4, with “DNA” for “Avena sativa HPPD or orthologues and variants thereof, for example SEQ IDs 1-63 and 122-127, were expressed in transgenic tobacco. DNA”
as §8, §1, §2, §9, §3

[10] = test system: transgenic tobacco plants expressing mutant HPPD SEQ ID NO: 122; assay: spray test, herbicidal damage scoring; type: in vivo; conditions: Table 4.4; 7 days after treatment; SEQ ID NO: 122; 100=complete death, 0=no damage; one value per event
Experimental: as §4, with “DNA” for “Avena sativa HPPD or orthologues and variants thereof, for example SEQ IDs 1-63 and 122-127, were expressed in transgenic tobacco. DNA”
as §8, §1, §2, §9, §3

CS(=O)(=O)c1cc(C(F)(F)F)ccc1C(=O)c1cnoc1C1CC1 [Isoxaflutole, isoxaflutole]
herbicidal damage scoring, Isoxaflutole (400 gai/ha) (wild-type tobacco plants): 95 and 97 and 96
tolerance compared to SEQ ID 122 expressing plants [1]: equally tolerant

CS(=O)(=O)c1ccc(C(=O)C2C(=O)CCCC2=O)c([N+](=O)[O-])c1 [Mesotrione, mesotrione]
tolerance compared to SEQ ID 122 expressing plants [1]: equally tolerant
IC50 [2]: 32.2 µM
IC50 [3]: 44.8 µM
IC50 [4]: 31.9 µM
IC50 [5]: 31.9 µM
IC50 [6]: 12.8 µM

CS(=O)(=O)c1ccc(C(=O)C2C(=O)CCCC2=O)c(Cl)c1COCC(F)(F)F [Tembotrione, tembotrione]
herbicidal damage scoring, Tembotrione (400 gai/ha) (wild-type tobacco plants): 97 and 95 and 98
herbicidal damage scoring, Tembotrione (400 gai/ha) [7]: 45 and 50 and 55 and 65 and 40
tolerance compared to SEQ ID 122 expressing plants [1]: increased tolerance
herbicidal damage scoring, Tembotrione (400 gai/ha) ([1]; Table 3.2, 14 days after treatment, best events, SEQ ID 14, 100=complete death, 0=no damage, one value per event): 25 and 30

Cc1c(C(=O)c2cnn(C)c2O)ccc(S(C)(=O)=O)c1C1=NOCC1 [Topramezone, topramezone]
herbicidal damage scoring, Topramezone (100 g/ha) (wild-type tobacco plants): 98 and 97 and 99 and 95
herbicidal damage scoring, Topramezone (100 g/ha) [8]: 0
herbicidal damage scoring, Topramezone (100 g/ha) [9]: 0
herbicidal damage scoring, Topramezone (100 g/ha) [10]: 0
